{"source": "paper PMC4745783", "about": "“The HGF inhibitory peptide HGP-1 displays promising in vitro and in vivo efficacy for targeted cancer therapy” (Oncotarget, 2015)", "molecules": {"B1": {"name": "HGF binding peptide-1, soluble synthetic peptide (peptide)", "peptide": "{FITC}-HRGLKWEIVPWSGCG", "notes": "the peptide of bacteria clone 1, synthesized free of bacteria; The methods say in general that FITC was labeled at the N-terminal of the peptides; also called HGP-1; FITC-labeled HGP-1; source: synthetic peptide (Shanghai Bootech Bioscience & Technology Co., Ltd.)"}}, "key": {"HGF [1]": {"tested_on": "HGF", "experiment": "Binding of HGF to peptides displayed on bacteria, regular vs stringent washing, flow cytometry", "set-up": "species or system human", "conditions": "PE-A fluorescence; for binding to HGF in washed group: displayed on bacteria, washed (PBS pH 7.4, 3 times, 4°C, 10 min) vs regular washing", "protocol": "Peptide physicochemical properties were preliminarily analyzed with bacteria clones. To evaluate the binding ability of peptides on the surface of bacteria to HGF, the PE-A fluorescence intensity of each clone with different wash procedures were determined by flow cytometry. Bacteria clones undergoing regular or stringent washing procedures after incubation with HGF were prepared. […] Bacteria clones were subcultured and induced as described before. Then, 10^7 bacteria of each clone were incubated with biotinylated HGF referring to sorting procedure. After incubating with HGF, bacteria were divided into two groups. The ‘original’ group was washed referring to sorting procedure, and the ‘washed’ group would have a tough washing. After centrifuged at 3000 × g for 5 minutes, bacteria in ‘washed’ group were resuspended by 1 mL phosphate buffered saline (PBS, PH 7.4) and inverted at 4°C for 10 minutes. The washing steps were repeated for 3 times. Samples from two groups were analyzed by flow cytometry."}, "human full length HGF": {"target": "T1, human full length HGF (Homo sapiens, UniProt P14210)", "T1 construct": "purchased Sino Biological Inc. 10463- NHAC-A", "T1 sequence (P14210 32-728)": "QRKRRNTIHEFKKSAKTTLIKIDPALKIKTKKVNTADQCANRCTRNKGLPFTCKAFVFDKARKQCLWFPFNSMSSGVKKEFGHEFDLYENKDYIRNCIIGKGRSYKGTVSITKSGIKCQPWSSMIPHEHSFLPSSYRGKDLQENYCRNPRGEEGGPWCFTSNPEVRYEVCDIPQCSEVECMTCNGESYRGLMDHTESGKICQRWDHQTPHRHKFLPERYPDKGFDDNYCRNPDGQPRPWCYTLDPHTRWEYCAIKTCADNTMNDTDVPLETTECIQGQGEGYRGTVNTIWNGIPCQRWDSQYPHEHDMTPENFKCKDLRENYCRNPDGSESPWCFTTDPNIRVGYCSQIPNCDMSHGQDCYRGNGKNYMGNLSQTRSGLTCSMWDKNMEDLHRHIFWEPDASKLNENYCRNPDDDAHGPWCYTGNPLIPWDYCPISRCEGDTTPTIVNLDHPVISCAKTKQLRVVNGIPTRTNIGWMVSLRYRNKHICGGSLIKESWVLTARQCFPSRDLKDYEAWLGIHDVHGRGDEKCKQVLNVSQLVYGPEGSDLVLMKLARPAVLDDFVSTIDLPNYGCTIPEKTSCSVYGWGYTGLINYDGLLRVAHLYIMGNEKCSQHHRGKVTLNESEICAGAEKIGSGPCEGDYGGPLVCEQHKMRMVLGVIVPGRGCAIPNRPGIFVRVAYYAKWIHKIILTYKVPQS", "experiment": "SPR affinity and kinetics", "assay_type": "binding", "conditions": "Biacore X100, CM5 chip", "protocol": "(§1) To pre-assess the binding ability of peptide to HGF, peptides were coated on the fluorescence plates and incubated with HGF. The well coated with HGP-1 had at least 1500 times higher RFU than the one with SP-H1. […] In order to obtain a precise affinity data of HGP-1, the affinity and kinetics of HGP-1 against HGF was detected by SPR technique (Figure 3a). HGF was immobilized on the surface of a CM5 chip. […] Different concentrations of HGP-1 were injected over the surface of the chip followed by dissociation in buffer without peptide.\nKinetic (ka and kd) and affinity constant (KD) of soluble peptide were determined by surface plasmon resonance technique on a Biacore X100 instrument (GE healthcare). The research-grade CM5 sensor chip was activated following the process which was recommended in the amino coupling reagent kit. Human full length HGF was dissolved in PBS and diluted to a suitable concentration by 20 mM NaCOOH buffer (pH4.0) and immobilized on the chip, and 2000 resonance units were immobilized. The remaining reactive groups were inactivated by ethanolamine. The peptide was dissolved and diluted by HBS-EP ([…], 150 mM NaCl, 3 mM EDTA-Na2 and 0.005% P20, pH7.4). Samples composed of concentrations ranging from 0 to 100 μM of peptides were injected over the protein surface. […] Ka, Kd and KD were calculated by Biacore X100 Evaluation software."}, "A549 cells [2]": {"tested_on": "A549 cells", "assay_type": "cell-based, human", "protocol": "A549 cells were seeded in a 96-well plate at a density of 7000 cells per well. After overnight culture, cells were starved with serum free DMEM medium for 48 hours. […] After cultured for 4 days, the cell culture medium was changed with fresh medium containing 0.5 mg/mL 3-(4, 5-Dimethylthiazol-2-yl)-2, 5-diphenyltetrazolium bromide (MTT) solution for another 4 hours incubation at 37°C, in 5% CO2. Then, medium was removed and cells were lysed with dimethyl sulfoxide. The absorption of the solution in each well was measured at 490 nm on a VECTOR X4 Multilabel Plate Reader. IC50 value was also determined and calculated by GraphPad Prism 5."}, "A549 cells [3]": {"tested_on": "A549 cells", "experiment": "MTT cytotoxicity in HGF-free environment", "conditions": "61.5 nM, 615 nM, 3.075 μM; 4-day, medium with 10% FBS; n = 4", "experimental": "MTT assay was also used to assess the cytotoxicity of peptides after 4-day incubation with peptides at different concentrations in the medium with 10% FBS. The cells were seeded in the 96-well plate at density of 2000 cells per well."}, "HGF [4]": {"tested_on": "HGF", "experiment": "ELISA, peptides coated on fluorescence plates and incubated with HGF", "assay_type": "binding, human", "conditions": "peptide coated, incubated with HGF", "protocol": "as §1"}, "MDA-MB-435s cells [5]": {"tested_on": "MDA-MB-435s cells", "experiment": "Wound healing (scratch) migration assay with HGF", "assay_type": "cell-based, human", "conditions": "HGF 0.625 nM, 2-day treatment", "protocol": "MDA-MB-435s cells were plated on a 24-well plate (1 × 10^5 cells/well), grown to an 80–90% confluent cell monolayer, and serum-starved for 24 hours. Wounds were scratched gently with tip of a plastic pipet and washed twice with PBS. Subsequently, HGF (0.625 nM) alone or coupled with peptides at the concentrations of 61.5 nM and 615 nM were added into the wells for 2 days treatment. Each well was photographed at 10 × magnification with light microscope before and after peptide treatment. The cell migration capabilities were assessed by calculating the width alteration of the wound area by Photoshop. The percentage of cell migration followed the equation: Percent migration=width before treatment-width after treatment/width before treatment×100%"}, "MDA-MB-435s cells [6]": {"tested_on": "MDA-MB-435s cells", "experiment": "Wound healing assay without HGF (non-specific inhibition)", "assay_type": "cell-based, human", "conditions": "61.5 nM and 615 nM; one day, medium with 10% FBS; n = 3", "protocol": "Wound healing assay was applied to evaluate the inhibitory effect of peptides to cell migration after one-day incubation with peptides at different concentrations in medium with 10% FBS."}, "[7]": {"target": "T2, Recombinant human full length HGF (human, UniProt P14210 32-728)", "T2 sequence (P14210 32-728)": "as above", "experiment": "cell-based or functional assay"}, "[8]": {"target": "T2, Recombinant human full length HGF", "experiment": "SPR; Biacore X100; HGF immobilised on a CM5 chip by amine coupling (2000 RU); peptide 0 to 100 μM in HBS-EP pH 7.4, 30 μL/min, 2 minutes injection, 8 minutes dissociation", "conditions": "both partners purified"}}, "note": "“Also recorded” adds a separate entry of the source. Where no end group is shown, it is not given here. The star is where a group is joined. FITC = O=C1OC2(c3ccc(O)cc3Oc3cc(O)ccc32)c2ccc(NC(=S)*)cc21", "data": [{"molecule": "TYFTWWELSPGCEEH [HGP-3]", "values": [{"measurement": "binding capability to HGF when displayed on the surface of bacteria, compared with HGP-2", "setting": "HGF [1]; flow cytometry", "result": "higher binding capability to HGF compared with HGP-2"}, {"measurement": "binding to HGF in washed group", "setting": "HGF [1]", "result": "bound to their targets as well as the regular ones"}]}, {"molecule": "HRGLKWEIVPWSGCG [HGP-1]", "values": [{"measurement": "kon", "setting": "human full length HGF; HBS-EP pH 7.4, 30 μL/min, 2 min injection, read-out: ka", "result": 698, "unit": "M⁻¹ s⁻¹"}, {"measurement": "kb", "setting": "human full length HGF; HBS-EP pH 7.4, 8 min dissociation, printed kb", "result": 0.001243, "unit": "s⁻¹"}, {"measurement": "IC50", "setting": "A549 cells [2]; 48 h", "result": 496, "unit": "µM"}, {"measurement": "cytotoxicity to cell proliferation in HGF-free environment", "setting": "A549 cells [3]", "result": "did not exhibit detectable cytotoxicity"}]}, {"molecule": "TLYEVDLREWCAGIVG [HGP-2]", "values": [{"measurement": "binding to HGF in washed group", "setting": "HGF [1]", "result": "had an obvious reduction"}, {"measurement": "RFU relative to SP-H1 coated well", "setting": "HGF [4]", "result": 700, "unit": "times"}, {"measurement": "inhibitory effect on cell proliferation", "setting": "A549 cells [2]; 61.5 nM, 615 nM, 3.075 μM, HGF, 4-day treatment, n = 3", "result": "inhibited"}, {"measurement": "inhibitory effect on cell migration", "setting": "MDA-MB-435s cells [5]", "result": "inhibited; also recorded: displayed a similar effect on MDA-MB-435s"}, {"measurement": "inhibitory effect on migration without HGF", "setting": "MDA-MB-435s cells [6]", "result": "no obvious inhibitory effect"}]}, {"molecule": "B1", "values": [{"measurement": "IC50 of inhibition of HGF (1 nM)-mediated A549 proliferation, MTT assay, 4 days", "setting": "[7]", "result": 496, "unit": "µM"}, {"measurement": "Kd", "setting": "[8]", "result": 1730, "unit": "nM"}, {"measurement": "koff", "setting": "[8]", "result": 0.00124, "unit": "s⁻¹"}, {"measurement": "kon", "setting": "[8]", "result": 698, "unit": "M⁻¹ s⁻¹"}]}]}
